Reference: article PMC12785453, “Oral Fluid Concentrations and Pharmacological Effects of Clephedrone and Methylone in Humans” (International Journal of Molecular Sciences, 2025)

Test system: healthy volunteers
Experiment: Subjective effects, visual analog scales (VAS), clephedrone study
Type: in vivo, humans
Description: The study evaluating the acute effects of clephedrone was designed as a non-controlled, prospective, observational, and naturalistic study. The procedures and evaluations included in this study have been described in previous studies evaluating other synthetic cathinones (mephedrone, methylone, alpha-PVP, NEP, HEXEN), phenethylamines (2C-B and 2C-E), or synthetic cannabinoids (JWH-122, JWH-210, UR-144).
This study consisted of one experimental session in which participants (N = 8; 6 women, 2 men) selected their oral dose of clephedrone based on their drug use experience and preferences. According to their dose selection, 3 women and 1 man ingested 100 mg of clephedrone, while the remaining 3 women and 1 man opted for a higher dose of 150 mg. […] Participants were recruited by word of mouth by the harm reduction organization Energy Control in Barcelona (Associació Benestar i Desenvolupament, ABD).
Subjective effects were evaluated with visual analog scales (VAS), the short form of the Addiction Research Center Inventory (ARCI), and the Evaluation of Subjective Effects of Substances with Abuse Potential questionnaire (VESSPA-SSE). In addition, the Sensitivity to Drug Reinforcement Questionnaire (SDRQ) and a pharmacological identification class questionnaire were used in the controlled study administering methylone.
VAS encompassed several adjectives that participants had to rate from “not at all” (0 mm) to “extremely” (100 mm) according to their sensations. This scale included 28 items: intensity, stimulated, high, good effects, bad effects, liking, changes in distances, changes in colors, changes in shapes, changes in lights, hallucinations (seeing lights or spots), hallucinations (seeing things, animals, insects, or people), changes in hearing, hallucinations (hearing sounds or voices), drowsiness, concentration, dizziness, confusion, different or changed body feeling, unreal body feeling, different surroundings, unreal surroundings, open, trust, feeling close to others, I want to be with other people, I want to hug someone, sexual desire, and sexual arousal.
Participants included in the naturalistic clephedrone study completed VAS at baseline, 0.50, 1, 1.5, 2, 3, 4, and 5 h, and ARCI and VESSPA at baseline, 1, 2, 3, 4, and 5 h after self-administering clephedrone. In the controlled study, VAS was performed at baseline and 0.25, 0.50, 0.75, 1, 1.5, 2, 3, 4, 6, 8, 10, and 24 h, and ARCI and VESSPA at baseline and 1, 2, 3, 4, 6, 8, and 10 h after administering methylone. Participants completed SDRQ and VAS sexual desire and arousal at baseline, 1 and 10 h, and the pharmacological class identification questionnaire at 8 h.
For statistical analysis, values of physiological (SBP, DBP, HR, and T) and subjective effects (VAS, ARCI, and VESSPA-SSE) were baseline–adjusted. Maximum effects (Emax) and the time needed to reach maximum effects (Tmax) were determined, and the area under the curve up to 5 h (AUC0–5h) for clephedrone and up to 6 h (AUC0–6h) for methylone was calculated using the trapezoidal rule. Emax and AUC values are presented as mean ± standard deviation, whereas Tmax is presented in median (range).
To find possible significant changes through the time course compared to baseline, a Dunnett multiple comparison test was carried out to compare each time point with baseline in both drug conditions. For clephedrone the comparisons were 0–0.5 h, 0–1 h, 0–1.5 h, 0–2 h, 0–3 h, 0–4 h and 0–5 h, and for methylone this analysis included 0–0.25 h, 0–0.5 h, 0–0.75 h, 0–1 h, 0–1.5 h, 0–2 h, 0–3 h, 0–4 h and 0–6 h. Given their different study designs, no comparative analysis between the time courses of both synthetic cathinones was conducted.

[1] = 100 or 150 mg oral, n=8, listed as clephedrone
[2] = AUC0–5h, 100 or 150 mg oral, n=8

CNC(C)C(=O)c1ccc(Cl)cc1 (centres unmarked) [Clephedrone, 4-chloromethcathinone]
Hallucinogenic effects (100 or 150 mg oral): did not evidence any hallucinogenic effects
Tmax of the high-scoring VAS subjective effects (100 or 150 mg oral): 3 h
VAS Bad effects Emax (100 or 150 mg oral, n=8): 0.38 ± 0.74 mm
VAS Changes in colors Emax (100 or 150 mg oral, n=8): 1.13 ± 2.80 mm
VAS Changes in colors Tmax (100 or 150 mg oral, n=8): 0.0 (0.0–3.0) h
VAS Changes in distances Emax (100 or 150 mg oral, n=8): 1.88 ± 4.55 mm
VAS Changes in distances Tmax (100 or 150 mg oral, n=8): 0.0 (0.0–2.0) h
VAS Changes in hearing Emax (100 or 150 mg oral, n=8): 8.75 ± 16.24 mm
VAS Changes in hearing Tmax (100 or 150 mg oral, n=8): 0.0 (0.0–4.0) h
VAS Changes in lights Emax (100 or 150 mg oral, n=8): 4.75 ± 9.79 mm
VAS Changes in lights Tmax (100 or 150 mg oral, n=8): 0.0 (0.0–4.0) h
VAS Concentration Emax (100 or 150 mg oral, n=8): 22.13 ± 16.65 mm
VAS Confusion Emax (100 or 150 mg oral, n=8): 3.00 ± 3.82 mm
VAS Different or changed body feeling Emax (100 or 150 mg oral, n=8): 39.63 ± 22.15 mm
VAS Different surroundings Emax (100 or 150 mg oral, n=8): 13.75 ± 23.50 mm
VAS Dizziness Emax (100 or 150 mg oral, n=8): 1.13 ± 1.81 mm
VAS Drowsiness Emax (100 or 150 mg oral, n=8): 14.25 ± 22.86 mm
VAS Feeling close to others Emax (100 or 150 mg oral, n=8): 53.38 ± 13.79 mm
VAS Good effects Emax (100 or 150 mg oral, n=8): 58.50 ± 20.46 mm
VAS High Emax (100 or 150 mg oral, n=8): 54.25 ± 20.19 mm
VAS I want to be with other people Emax (100 or 150 mg oral, n=8): 34.63 ± 28.16 mm
VAS I want to hug someone Emax (100 or 150 mg oral, n=8): 37.63 ± 28.01 mm
VAS Intensity Emax (100 or 150 mg oral, n=8): 49.13 ± 17.18 mm
VAS Liking Emax (100 or 150 mg oral, n=8): 59.00 ± 18.56 mm
VAS Open Emax (100 or 150 mg oral, n=8): 49.25 ± 18.78 mm
VAS Sexual arousal Emax (100 or 150 mg oral, n=8): 20.13 ± 18.70 mm
VAS Sexual desire Emax (100 or 150 mg oral, n=8): 20.63 ± 19.60 mm
VAS Stimulated Emax (100 or 150 mg oral, n=8): 48.75 ± 14.47 mm
VAS Trust Emax (100 or 150 mg oral, n=8): 53.75 ± 20.62 mm
VAS Unreal body feeling Emax (100 or 150 mg oral, n=8): 2.13 ± 4.16 mm
VAS Unreal surroundings Emax (100 or 150 mg oral, n=8): 1.50 ± 4.24 mm
VAS Concentration Emax [1]: exceeding 20 mm
VAS Different or changed body feeling Emax [1]: > 30 mm
VAS Feeling close to others Emax [1]: exceeding 40 mm
VAS Good effects Emax [1]: exceeding 40 mm
VAS High Emax [1]: exceeding 40 mm
VAS I want to be with other people Emax [1]: > 30 mm
VAS I want to hug someone Emax [1]: > 30 mm
VAS Intensity Emax [1]: exceeding 40 mm
VAS Liking Emax [1]: exceeding 40 mm
VAS Open Emax [1]: exceeding 40 mm
VAS Sexual arousal Emax [1]: exceeding 20 mm
VAS Sexual desire Emax [1]: exceeding 20 mm
VAS Stimulated Emax [1]: exceeding 40 mm
VAS Trust Emax [1]: exceeding 40 mm
VAS Bad effects AUC0-5/6 h [2]: 0.38 ± 0.74 mm·h
VAS Changes in colors AUC0-5/6 h [2]: 1.75 ± 4.75 mm·h
VAS Changes in distances AUC0-5/6 h [2]: 1.53 ± 3.76 mm·h
VAS Changes in hearing AUC0-5/6 h [2]: 12.44 ± 23.03 mm·h
VAS Changes in lights AUC0-5/6 h [2]: 6.41 ± 14.74 mm·h
VAS Concentration AUC0-5/6 h [2]: 45.34 ± 33.03 mm·h
VAS Confusion AUC0-5/6 h [2]: 3.72 ± 5.72 mm·h
VAS Different or changed body feeling AUC0-5/6 h [2]: 87.38 ± 52.74 mm·h
VAS Different surroundings AUC0-5/6 h [2]: 25.56 ± 52.75 mm·h
VAS Dizziness AUC0-5/6 h [2]: 0.97 ± 1.49 mm·h
VAS Drowsiness AUC0-5/6 h [2]: 13.25 ± 20.39 mm·h
VAS Feeling close to others AUC0-5/6 h [2]: 116.56 ± 42.59 mm·h
VAS Good effects AUC0-5/6 h [2]: 129.66 ± 50.22 mm·h
VAS High AUC0-5/6 h [2]: 118.63 ± 44.24 mm·h
VAS I want to be with other people AUC0-5/6 h [2]: 62.94 ± 49.65 mm·h
VAS I want to hug someone AUC0-5/6 h [2]: 80.38 ± 74.45 mm·h
VAS Intensity AUC0-5/6 h [2]: 112.03 ± 34.05 mm·h
VAS Liking AUC0-5/6 h [2]: 134.09 ± 48.13 mm·h
VAS Open AUC0-5/6 h [2]: 112.56 ± 51.16 mm·h
VAS Sexual arousal AUC0-5/6 h [2]: 44.44 ± 49.02 mm·h
VAS Sexual desire AUC0-5/6 h [2]: 44.69 ± 48.58 mm·h
VAS Stimulated AUC0-5/6 h [2]: 104.81 ± 29.68 mm·h
VAS Trust AUC0-5/6 h [2]: 126.91 ± 60.79 mm·h
VAS Unreal body feeling AUC0-5/6 h [2]: 3.13 ± 6.75 mm·h
VAS Unreal surroundings AUC0-5/6 h [2]: 1.50 ± 4.24 mm·h
Time of peak pharmacological effects (oral): 3 h
